Experimental data: PubChem BioAssay (NCI)
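Cultured in 96-well plates, cells were exposed to test compound for 48 hours across five concentrations. GI50 marks 50% less growth. TGI marks complete inhibition of growth.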

What was measured:
Assay in all cases: NCI-60 cell line screen, 48 h
[1] = test system: SW-620 colon
[2] = test system: MOLT-4 leukemia
[3] = test system: NCI-H460 lung
[4] = test system: SN12C renal
[5] = test system: T-47D breast
[6] = test system: K-562 leukemia
[7] = test system: SK-MEL-5 melanoma
[8] = test system: HCT-116 colon
[9] = test system: EKVX NSCLC
[10] = test system: HCT-15 colon
[11] = test system: DU-145 prostate
[12] = test system: TK-10 renal
[13] = test system: UACC-257 melanoma
[14] = test system: SNB-75 CNS
[15] = test system: MCF7 breast
[16] = test system: CCRF-CEM leukemia
[17] = test system: OVCAR-4 ovarian
[18] = test system: UO-31 renal
[19] = test system: KM12 colon
[20] = test system: SF-295 CNS
[21] = test system: CAKI-1 renal
[22] = test system: SF-268 CNS
[23] = test system: PC-3 prostate
[24] = test system: BT-549 breast
[25] = test system: UACC-62 melanoma
[26] = test system: A549 NSCLC
[27] = test system: SF-539 CNS
[28] = test system: HT29 colon
[29] = test system: MDA-MB-231 breast
[30] = test system: HCC-2998 colon
[31] = test system: MALME-3M melanoma
[32] = test system: NCI/ADR-RES ovarian
[33] = test system: SK-MEL-28 melanoma
[34] = test system: COLO 205 colon
[35] = test system: LOX IMVI melanoma
[36] = test system: OVCAR-3 ovarian
[37] = test system: SR leukemia
[38] = test system: M14 melanoma
[39] = test system: SK-MEL-2 melanoma
[40] = test system: IGROV1 ovarian
[41] = test system: NCI-H226 lung
[42] = test system: HOP-62 NSCLC
[43] = test system: RXF 393 renal
[44] = test system: NCI-H23 lung
[45] = test system: MDA-MB-435
[46] = test system: RPMI-8226 leukemia
[47] = test system: ACHN renal
[48] = test system: SNB-19 CNS
[49] = test system: 786-0 renal
[50] = test system: HOP-92 NSCLC
[51] = test system: OVCAR-5 ovarian
[52] = test system: OVCAR-8 ovarian
[53] = test system: HS 578T breast
[54] = test system: HL-60(TB) leukemia
[55] = test system: SK-OV-3 ovarian
[56] = test system: NCI-H522 lung
[57] = test system: U251 CNS
[58] = test system: A498 renal

## CCCCNC(=O)Oc1ccc(/C(=C(\C)c2ccc(OC)cc2)c2ccc(OCCN3CCCCC3)cc2)cc1
[1]
  GI50: 2.45 µM
  TGI: 6.15 µM
[2]
  GI50: 3.12 µM
  TGI: 71.9 µM
[3]
  GI50: 1.94 µM
  TGI: 3.86 µM
[4]
  GI50: 2.21 µM
  TGI: 6.01 µM
[5]
  GI50: 1.24 µM
  TGI: 6.37 µM
[6]
  GI50: 1.49 µM
  TGI: 4.65 µM
[7]
  GI50: 1.68 µM
  TGI: 3.08 µM
[8]
  GI50: 1.15 µM
  TGI: 2.38 µM
[9]
  GI50: 5.18 µM
  TGI: 22.9 µM
[10]
  GI50: 1.67 µM
  TGI: 4.52 µM
[11]
  GI50: 6.5 µM
  TGI: 21.4 µM
[12]
  GI50: 9.41 µM
  TGI: 23.3 µM
[13]
  GI50: 2.72 µM
  TGI: 6.71 µM
[14]
  GI50: 6.91 µM
  TGI: 25 µM
[15]
  GI50: 0.0721 µM
  TGI: 3.99 µM
[16]
  GI50: 2.81 µM
  TGI: 9.78 µM
[17]
  GI50: 2.29 µM
  TGI: 8.2 µM
[18]
  GI50: 1.71 µM
  TGI: 4.01 µM
[19]
  GI50: 2.35 µM
  TGI: 5.91 µM
[20]
  GI50: 2.27 µM
  TGI: 5.47 µM
[21]
  GI50: 1.94 µM
  TGI: 3.92 µM
[22]
  GI50: 5.55 µM
  TGI: 20.5 µM
[23]
  GI50: 2.35 µM
  TGI: 7.03 µM
[24]
  GI50: 1.48 µM
  TGI: 2.89 µM
[25]
  GI50: 2.06 µM
  TGI: 4.1 µM
[26]
  GI50: 4.15 µM
  TGI: 16 µM
[27]
  GI50: 1.64 µM
  TGI: 3.12 µM
[28]
  GI50: 0.873 µM
  TGI: 6.77 µM
[29]
  GI50: 2.08 µM
  TGI: 3.83 µM
[30]
  GI50: 3.31 µM
  TGI: 11.5 µM
[31]
  GI50: 1.74 µM
  TGI: 3.31 µM
[32]
  GI50: 3.67 µM
  TGI: 19.3 µM
[33]
  GI50: 1.75 µM
  TGI: 3.4 µM
[34]
  GI50: 2.07 µM
  TGI: 4.63 µM
[35]
  GI50: 1.83 µM
  TGI: 3.44 µM
[36]
  GI50: 2.09 µM
  TGI: 4.51 µM
[37]
  GI50: 1.59 µM
  TGI: 4.63 µM
[38]
  GI50: 1.7 µM
  TGI: 3.23 µM
[39]
  GI50: 4.65 µM
  TGI: 17.4 µM
[40]
  GI50: 2.6 µM
  TGI: 6.46 µM
[41]
  GI50: 7.77 µM
  TGI: 27.9 µM
[42]
  GI50: 3.15 µM
  TGI: 10.7 µM
[43]
  GI50: 2.09 µM
  TGI: 4.3 µM
[44]
  GI50: 4.06 µM
  TGI: 21.4 µM
[45]
  GI50: 1.78 µM
  TGI: 3.67 µM
[46]
  GI50: 2.14 µM
  TGI: 5.13 µM
[47]
  GI50: 3.12 µM
  TGI: 10.7 µM
[48]
  GI50: 3.95 µM
  TGI: 15.2 µM
[49]
  GI50: 1.47 µM
  TGI: 2.83 µM
[50]
  GI50: 1.57 µM
  TGI: 3.71 µM
[51]
  GI50: 7.27 µM
  TGI: 23.2 µM
[52]
  GI50: 3.4 µM
  TGI: 11.1 µM
[53]
  GI50: 2.14 µM
  TGI: 4.82 µM
[54]
  GI50: 1.53 µM
  TGI: 3.58 µM
[55]
  GI50: 7.63 µM
  TGI: 25 µM
[56]
  GI50: 3.42 µM
  TGI: 11.4 µM
[57]
  GI50: 2.49 µM
  TGI: 5.99 µM

## CSc1c(C(N)=S)c(N)nn1-c1ccccc1
[1]
  TGI: > 100 µM
[2]
  TGI: > 100 µM
[3]
  TGI: > 100 µM
[4]
  TGI: > 100 µM
[5]
  TGI: > 100 µM
[6]
  TGI: > 100 µM
[7]
  TGI: > 100 µM
[8]
  TGI: > 100 µM
[9]
  TGI: > 100 µM
[10]
  TGI: > 100 µM
[11]
  TGI: > 100 µM
[12]
  TGI: > 100 µM
[13]
  TGI: > 100 µM
[14]
  TGI: > 100 µM
[15]
  TGI: > 100 µM
[58]
  TGI: > 100 µM
[17]
  TGI: > 100 µM
[18]
  TGI: > 100 µM
[19]
  TGI: > 100 µM
[21]
  TGI: > 100 µM
[22]
  TGI: > 100 µM
[23]
  TGI: > 100 µM
[24]
  TGI: > 100 µM
[25]
  TGI: > 100 µM
[26]
  TGI: > 100 µM
[27]
  TGI: > 100 µM
[28]
  TGI: > 100 µM
[29]
  TGI: > 100 µM
[30]
  TGI: > 100 µM
[31]
  TGI: > 100 µM
[32]
  TGI: > 100 µM
[33]
  TGI: > 100 µM
[34]
  TGI: > 100 µM
[35]
  TGI: > 100 µM
[36]
  TGI: > 100 µM
[37]
  TGI: > 100 µM
[38]
  TGI: > 100 µM
[39]
  TGI: > 100 µM
[40]
  TGI: > 100 µM
[41]
  TGI: > 100 µM
[43]
  TGI: > 100 µM
[44]
  TGI: > 100 µM
[45]
  TGI: > 100 µM
[46]
  TGI: > 100 µM
[48]
  TGI: > 100 µM
[49]
  TGI: > 100 µM
[50]
  TGI: > 100 µM
[51]
  TGI: > 100 µM
[52]
  TGI: > 100 µM
[53]
  TGI: > 100 µM
[54]
  TGI: > 100 µM
[55]
  TGI: > 100 µM
[56]
  TGI: > 100 µM
[57]
  TGI: > 100 µM
